The values that follow come from ChEMBL document CHEMBL2375231, “Tricyclic thiazoles are a new class of angiogenesis inhibitors” (Bioorg Med Chem Lett, 2013).

By IC50 is commonly meant the concentration at which inhibition is half-maximal. Broadly, the inhibition is the change of the read-out against control, counted positive when it falls.

Test [1] relates to HUVEC. The experiment in a line: Antiangiogenic activity against human HUVEC cells assessed as inhibition of [3H]thymidine incorporation incubated for 24 hrs prior to [3H]thymidine addition measured after 6 hrs by microbeta counting analysis. It counts as functional, cell-based.
The test system of test [2] is HeLa. The experiment in a line: Antiproliferative activity against human HeLa cells assessed as inhibition of [3H]thymidine incorporation incubated for 24 hrs prior to [3H]thymidine addition measured after 6 hrs by microbeta counting analysis. Format: functional, cell-based.
Test [3] in a line: Antiproliferative activity against human Jurkat T cells assessed as inhibition of [3H]thymidine incorporation incubated for 24 hrs prior to [3H]thymidine addition measured after 6 hrs by microbeta counting analysis. Format: functional, cell-based. On the technique in general: Incorporation of labelled thymidine or its analogues reports DNA synthesis.
Test [4] relates to BT-474. As to the kind of experiment: Antiproliferative activity against human BT474 cells assessed as inhibition of [3H]thymidine incorporation incubated for 24 hrs prior to [3H]thymidine addition measured after 6 hrs by microbeta counting analysis. It counts as functional, cell-based.
For test [5], the system named is HUVEC. The experiment in a line: Selectivity ratio of IC50 for human BT474 cells to IC50 for human HUVEC cells. Format: functional.
Test [6] has as its system HeLa. The experiment in a line: Selectivity ratio of IC50 for human HeLa cells to IC50 for human HUVEC cells. It counts as functional.
For test [7], the system named is HUVEC. As to the kind of experiment: Selectivity ratio of IC50 for human Jurkat T cells to IC50 for human HUVEC cells. Format: functional.
Test [8] deals with HUVEC. As to the kind of experiment: Antiangiogenic activity against human HUVEC cells assessed as inhibition of tube formation after 16 to 18 hrs by Calcein-AM staining-based fluorescence microscopic analysis. Format: functional, cell-based.
Test [9] concerns HUVEC. The experiment in a line: Antiangiogenic activity against human HUVEC cells assessed as inhibition of tube formation at 5 uM after 16 to 18 hrs by Calcein-AM staining-based fluorescence microscopic analysis. It counts as functional.

On to `CCC(=O)Nc1nc2c(s1)CCc1cc(OC)c(OC)cc1-2`, for which the IC50 in [1] was more than 10 µM.
Regarding `O=C(Nc1nc2c(s1)CSc1ccccc1-2)c1c(F)cccc1F`, the IC50 in test [2] worked out at 13.1 µM; in [3], 11.8 µM; in test [1] it was 12 µM; in test [4], 7.2 µM.
With `Nc1nc2c(s1)CCCc1ccccc1-2`, the half-maximal inhibitory concentration (IC50) was more than 20 µM in test [2], more than 20 µM in [3], 19.1 µM in [1] and more than 20 µM in test [4].
Take `Nc1nc2c(s1)Cc1cc(F)ccc1-2`: in [1], the 50% inhibitory concentration (IC50) is more than 10 µM.
`CCC(=O)N(C(=O)CC)c1nc2c(s1)CCCc1ccccc1-2`: the half-maximal inhibitory concentration (IC50) in [2] is 5.9 µM; in test [3], 2.8 µM; in test [1] it was 1.5 µM; in test [4] it was more than 20 µM. Besides, the “Ratio IC50” value in test [5] is more than 13; in test [6], 4; in test [7] it was 1.9.
Take `COc1ccc(-c2csc(NC(C)=O)n2)cc1OC`: in test [1], the IC50 is more than 10 µM.
Same read-out and setting: in the case of `COc1ccc2c(c1)CCc1sc(N)nc1-2` it was more than 10 µM; in that of `COc1ccc2c(c1)Cc1sc(N)nc1-2`, more than 10 µM.
On the same count and under the same terms, in the case of `CCCCCC(=O)Nc1nc2c(s1)CCc1cc(OC)ccc1-2` it was 3.7 µM.
Regarding `CCOC(=O)Nc1nc2c(s1)CCCc1ccccc1-2`, the IC50 in [2] was more than 20 µM; in test [3], more than 20 µM; in test [1] it was 9.2 µM; in test [4], more than 20 µM.
Turning to `Nc1nc2c(s1)COc1ccccc1-2`, the 50% inhibitory concentration (IC50) in test [1] was more than 10 µM.
For the compound `CCC(=O)Nc1nc2c(s1)CSc1ccccc1-2`, the 50% inhibitory concentration (IC50) in test [2] stood at 8 µM; in test [3], 4.9 µM; in test [1], 2 µM; in test [4] it was 5.9 µM. Besides, the “Ratio IC50” value in [5] was 3; in test [6], 4; in [7], 2.5.
Consider `COc1ccc2c(c1)-c1nc(NC(C)=O)sc1CC2`, for which the IC50 in test [1] is 4.2 µM.
Regarding `Nc1nc2c(s1)CCOc1cc3c(cc1-2)OCO3`, the IC50 in [1] was determined as 5.1 µM.
For `CCC(=O)Nc1nc2c(s1)COc1ccccc1-2`, the concentration for half-maximal inhibition (IC50) in [1] is more than 10 µM.
As for `O=C(Nc1nc2c(s1)CSc1ccc(Cl)cc1-2)c1c(F)cccc1F`, the half-maximal inhibitory concentration (IC50) in [2] was more than 20 µM; in [3], 17.3 µM; in test [1] it was 5.2 µM; in test [4] it was 3.6 µM. Moreover, the “Ratio IC50” value is recorded as 0.7 in [5], more than 4 in [6] and 3.3 in test [7].
On to `C#CCOc1ccc(C(=O)Nc2nc3c(s2)CSc2ccccc2-3)cc1`, for which the IC50 in [2] was 5 µM; in test [3] it was 4.6 µM; in [1], 2.9 µM; in [4], 0.3 µM. Besides, the entries for the “Ratio IC50” value in [5], in test [6] and in test [7] were 0.1, 1.7 and 1.6, respectively.
Take `[N-]=[N+]=NCCCCCCNc1nc2c(s1)CSc1ccccc1-2`: the half-maximal inhibitory concentration (IC50) in test [1] is 5.9 µM.
Same read-out and setting: in the case of `CCC(=O)Nc1nc2c(s1)CCCC2` it was more than 10 µM.
The same measure, in the same setting: the same measure for `Nc1nc2c(s1)CCc1ccccc1-2`: more than 10 µM.
For the compound `CCOC(=O)Nc1nc2c(s1)CSc1ccc(Cl)cc1-2`, the half-inhibitory concentration (IC50) amounted to 6.5 µM in test [2], 6.3 µM in [3], 2.8 µM in test [1] and 6.2 µM in test [4]. Further, the “Ratio IC50” value in test [5] is on record as 2.2; in test [6], 2.3; in test [7] it was 2.3.
In the case of `CCCCCC(=O)Nc1nc2c(s1)CCc1ccccc1-2`, the IC50 in test [1] was found to be 3 µM.
Regarding `Nc1nc2c(s1)-c1ccccc1CC2`, in test [1], the concentration for half-maximal inhibition (IC50) is more than 10 µM.
Take `O=C(Nc1nc2c(s1)CCCc1ccc(F)cc1-2)c1c(F)cccc1F`: the IC50 in test [2] is more than 20 µM; in test [3] it was more than 20 µM; in test [1] it was 13.5 µM; in [4] it was more than 20 µM.
`Nc1nc2c(s1)CCCC2`: in [1], the IC50 is more than 10 µM.
Take `COc1ccc2c(c1)-c1nc(N)sc1CC2`: the IC50 in test [1] was more than 10 µM.
On the same count and under the same terms, in the case of `C#CCOc1ccc(C(=O)Nc2nc3c(s2)CCCc2ccccc2-3)cc1` it was 7.3 µM; in that of `CCC(=O)Nc1nc2c(s1)Cc1cc(F)ccc1-2`, more than 10 µM.
In the case of `Nc1nc2c(s1)CSc1ccc(Cl)cc1-2`, the IC50 in test [2] was found to be 11.9 µM; in [3] it was 1.6 µM; in test [1], 1.9 µM; in [4] it was 3.8 µM. In addition, the “Ratio IC50” value came to 2 in [5], 6.3 in test [6] and 0.8 in test [7].
For the compound `Nc1nc2c(s1)CSc1ccccc1-2`, the IC50 amounted to 6.8 µM in test [2], 0.9 µM in [3], 1.9 µM in test [1] and 8.2 µM in test [4]. The “Ratio IC50” value in [5] was found to be 4.3; in test [6], 3.6; in test [7], 0.5.
`COc1cccc2c1CCc1sc(NC(C)=O)nc1-2`: in test [1], the IC50 is more than 10 µM.
On the same count and under the same terms, the same measure for `CCC(=O)Nc1nc2c(s1)COc1ccc(F)cc1-2`: more than 10 µM.
Still for that read-out and setting: the same measure for `CC(=O)Nc1nc2c(s1)-c1ccccc1CC2`: more than 10 µM.
Still for that read-out and setting: in the case of `COc1ccc2c(c1)CCc1sc(NC(C)=O)nc1-2` it was more than 10 µM.
For `Clc1ccc2c(c1)-c1nc(NCc3ccco3)sc1CS2`, the 50% inhibitory concentration (IC50) came out at 10.3 µM in test [2], 2.5 µM in [3], 1.1 µM in test [1] and 2.3 µM in [4]. Further, the “Ratio IC50” value is recorded as 2.1 in test [5], 9.4 in [6] and 2.3 in test [7]. In addition, in test [8], the inhibition entry is “Dose-dependent effect”.
With `COc1cc2c(cc1OC)-c1nc(N)sc1CC2`, the IC50 in [1] was more than 10 µM.
With `Nc1nc2c(s1)CCCc1ccc(F)cc1-2`, the 50% inhibitory concentration (IC50) in test [2] is 16.2 µM; in [3] it was more than 20 µM; in [1], 14.8 µM; in [4], more than 20 µM.
Turning to `COc1cccc2c1CCc1sc(N)nc1-2`, in test [1], the concentration for half-maximal inhibition (IC50) was more than 10 µM.
Still for that read-out and setting: in the case of `COc1ccc2c(c1)CCc1sc(NCc3ccco3)nc1-2` it was 4.5 µM; in that of `COc1ccc(-c2csc(N)n2)cc1OC`, more than 10 µM; in that of `COc1ccc2c(c1)Cc1sc(NC(C)=O)nc1-2`, 4.4 µM.
Same read-out and setting: in the case of `CC(=O)Nc1nc(-c2ccc(Cl)cc2)cs1` it was more than 10 µM.
The same measure, in the same setting: the same measure for `CC(=O)Nc1nc2c(s1)CCc1ccccc1-2`: more than 10 µM.
`CCC(=O)Nc1nc2c(s1)CCCc1ccccc1-2`: the IC50 in test [2] is more than 20 µM; in [3], more than 20 µM; in test [1], 3.7 µM; in test [4] it was more than 20 µM. The “Ratio IC50” value in test [5], in [6] and in [7] was more than 5 throughout.
Turning to `Nc1nc(-c2ccc(Cl)cc2)cs1`, the 50% inhibitory concentration (IC50) in test [1] is more than 10 µM.
The same measure, in the same setting: in the case of `Nc1nc2c(s1)COc1ccc(F)cc1-2` it was more than 10 µM.
Turning to `O=C(Nc1nc2c(s1)CCCc1ccccc1-2)c1c(F)cccc1F`, the half-maximal inhibitory concentration (IC50) in test [2] is 15.2 µM; in [3], more than 20 µM; in [1], 1.5 µM; in test [4] it was more than 20 µM. Further, the “Ratio IC50” value in [5] is more than 13; in test [6], 10; in [7] it was more than 13. Moreover, the inhibition result in test [8] was “Dose-dependent effect”. Also, the inhibition at 5 µM in [9] was 75%.
